In patent publication US20220175675A1, “ENCAPSULATING MOLECULES IN FAT GLOBULES” (The Regents of the University of California, priority 2019, published 2022):

Tests used:
[1] = Loading of vitamin D3 in ovine milk fat globules; type: physicochemical; details: for EE %, 1% v/v ethanol / EE %, 10% v/v ethanol / LY, 1% v/v ethanol / LY, 10% v/v ethanol: Ovine MFGs, 30 minutes
Procedure: Raw milk was diluted with Milli-Q water at 9:1 water to milk. Cream was separated from diluted milk via centrifugation at 3,000×g for 5 min. Cream was collected and reconstituted in water at 4% w/v concentration. The mixture was then further centrifuged at 3,000×g for 5 min. The cream was then collected and reconstituted to desired weight/volume in water (20% w/v in water).
Encapsulation of VD3 was achieved by incubation of compound's ethanolic solution with 20% w/v cream suspended in water. Once well mixed by gently inverting the tube, the contents were allowed to incubate in the dark. […] Significant values were reported with a 95% confidence interval, i.e. p<0.05.
At the end of the incubation period with VD3, cream was separated by centrifuging the suspension at 3,000×g for 5 min Cream was skimmed off the top with particular care not to include any of the aqueous phase. Methanol was added at 50 mg/mL and vortexed vigorously for 1 min. The mixture was then centrifuged at 3,000×g for 30 min. Liquid phase was collected and absorbance was measured at 264 nm. Absorbance blank was prepared fresh during every encapsulation run by introducing ethanol to cream suspended in water. Absorbance of the blank was subtracted from test samples to remove the absorbance of solvent, lipids, and other MFGs components. All experiments were conducted in triplicates.
Fat content in cream was measured to calculate the loading yield. The fat was isolated using the same set of preparation steps detailed in Example 13 with the addition of the last centrifugation step to recover cream after at the end of the loading process. The total fat content was determined using a modified Folch method (Folch, Lees, & Sloane-Stanley, 1957) where an additional step of washing the chloroform/water interface with 1:1 water/methanol solution was added to remove milk serum components. The loading yield of VD3 in milk fat was calculated as follows: […]
where CE is the VD3 extracted from MFGs (μg), and MF is the mass of milk fat (g) in MFGs suspension. The extraction procedure was conducted in triplicates using independent milk samples.

[2] = Encapsulation of hydrophobic compounds into milk fat globules (loading capacity, encapsulation efficiency); type: physicochemical, bovine; details: 10% v/v ethanol, 30 min
Procedure: Raw milk was procured from a local market and stored at 4° C. Milk was used for up to 4 days post purchase. MFGs were separated from raw milk using centrifugal separation following a modified version of the method by Gallier et al. (2010) (12). First, raw milk was diluted with Milli-Q water at 9:1 water to milk, and the solution was centrifuged at 3,000×g for 5 min using a fixed angle centrifuge rotor. Cream was then skimmed off the sides of the centrifuged tubes after discarding the aqueous phase. In order to remove more of the milk serum components, cream was reconstituted in water to reach 4% w/v, and subjected to another step of centrifugation at 3,000×g for 5 min Cream was collected as detailed prior, then reconstituted to 20% w/v in Milli-Q water. All separation steps were completed at room temperature.
Encapsulation of test compounds in MFGs was accomplished by mixing ethanolic stock solution of a compound with 20% w/v cream suspended in water. The mixture was gently inverted several times to mix, then allowed in incubate in the dark.
To test the effect of incubation temperature on the partitioning and encapsulation yield and efficiency, RA was added at 250 μM concentration and was allowed to incubate with MFGs for 30 min at 4, 22, and 40° C.
To quantify the amount of compound encapsulated in MFGs, cream was separated from ethanol-containing aqueous phase via centrifugal separation at 3,000 x g for 5 min. Cream was skimmed and added to methanol at 50 mg/mL and vortexed vigorously for 1 min, then centrifuged at 16,000×g for 10 min. Top layer of methanol was collected and absorbance was measured at appropriate wavelength for each compound. An absorbance blank was prepared following the same encapsulation and separation steps in the absence of compound. λmax in methanol (nm) for each compound is reported in Table 1.
Cream (20% w/v in Milli-Q water) that was separated following the steps in Example 2 was further separated via centrifugation at 3,000×g for 5 min. Fat content in cream was measured using a modified Folch method (13). An additional washing step was incorporated where the chloroform/water interface was washed with 1:1 water/methanol solution.

From the text for physchem: One such molecular property that is used to predict partitioning potential is the octanol—water partition coefficient; Log P, which is the logarithm of the ratio of the solute concentration in the octanol phase to the solute concentration in the water phase, at a defined temperature.

Compound: C=C1CC[C@H](O)C/C1=C/C=C1\CCC[C@]2(C)[C@@H]([C@H](C)CCCC(C)C)CC[C@@H]12 [Cholecalciferol]
- EE %, 1% v/v ethanol ([1]; 50 μM): 11.75 ± 0.44%
- EE %, 10% v/v ethanol ([1]; 50 μM): 37.83 ± 10.36%
- LY, 1% v/v ethanol ([1]; 50 μM): 11.17 ± 0.41 μg of VD3 per gram of milk fat
- LY, 10% v/v ethanol ([1]; 50 μM): 35.95 ± 9.85 μg of VD3 per gram of milk fat
- EE %, 1% v/v ethanol ([1]; 100 μM): 10.70 ± 3.12%
- EE %, 10% v/v ethanol ([1]; 100 μM): 20.29 ± 4.85 %
- LY, 1% v/v ethanol ([1]; 100 μM): 20.35 ± 5.93 μg of VD3 per gram of milk fat
- LY, 10% v/v ethanol ([1]; 100 μM): 38.56 ± 9.23 μg of VD3 per gram of milk fat
- EE %, 1% v/v ethanol ([1]; 150 μM): 10.17 ± 0.67%
- EE %, 10% v/v ethanol ([1]; 150 μM): 18.95 ± 6.34 %
- LY, 1% v/v ethanol ([1]; 150 μM): 29.01 ± 1.92 μg of VD3 per gram of milk fat
- LY, 10% v/v ethanol ([1]; 150 μM): 54.03 ± 18.08 μg of VD3 per gram of milk fat
- EE %, 1% v/v ethanol ([1]; 200 μM): 8.49 ± 1.65%
- EE %, 10% v/v ethanol ([1]; 200 μM): 14.30 ± 3.90 %
- LY, 1% v/v ethanol ([1]; 200 μM): 32.28 ± 6.26 μg of VD3 per gram of milk fat
- LY, 10% v/v ethanol ([1]; 200 μM): 54.33 ± 14.83 μg of VD3 per gram of milk fat
- EE %, 1% v/v ethanol ([1]; 250 μM): 8.13 ± 1.27%
- EE %, 10% v/v ethanol ([1]; 250 μM): 10.31 ± 1.14 %
- LY, 1% v/v ethanol ([1]; 250 μM): 38.62 ± 6.06 μg of VD3 per gram of milk fat
- LY, 10% v/v ethanol ([1]; 250 μM): 49.00 ± 5.43 μg of VD3 per gram of milk fat
- VD3 loaded into MFGs (up to) ([1]; ovine MFGs): ≤ 54 μg/g milk fat
- % Encapsulation efficiency ([2]; 50 μM added compound, room temperature): 68.60 ± 6.30%
- % Encapsulation efficiency ([2]; 100 μM added compound, room temperature): 69.58 ± 6.44%
- % Encapsulation efficiency ([2]; 150 μM added compound, room temperature): 67.62 ± 3.67%
- % Encapsulation efficiency ([2]; 200 μM added compound, room temperature): 63.59 ± 1.43%
- % Encapsulation efficiency ([2]; 250 μM added compound, room temperature): 49.84 ± 3.74 %
- % Encapsulation efficiency ([2]; 500 μM added compound, room temperature): 45.25 ± 3.00 %
- % Encapsulation efficiency ([2]; 1000 μM added compound, room temperature): 24.77 ± 0.84 %
- % Encapsulation efficiency ([2]; 1500 μM added compound, room temperature): 28.92 ± 3.43 %
- % Encapsulation efficiency ([2]; 2000 μM added compound, room temperature): 19.66 ± 1.05 %
- % Encapsulation efficiency ([2]; 2500 μM added compound, room temperature): 19.22 ± 2.88 %
- maximal loading capacity (LC) ([2]; maximal value over 50-2500 μM, room temperature): 22.12 μg per gram of milk fat
- encapsulation efficiency (EE %), maximal/overall value ([2]; over tested concentrations): 69%
- logP (physchem): ~7.5
